How the values were obtained:
Format in all cases: in vivo
Alopecurus myosuroides = experiment: Post-emergence herbicidal action, ALOMY; set-up: key: % herbicidal action vs untreated; 100 = plants died, 0 = like control
In short: (§1)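 Percent herbicidal effect was judged by eye against untreated controls around 3 weeks after foliar treatment, where 100% meant dead plants. Spraying took place at the one-leaf stage using wettable powder or emulsion concentrate diluted in water (600 to 800 l/ha) with added wetting agent at 0.2%.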

Viola tricolor = experiment: Pre-emergence herbicidal action, VIOTR; details: dosage 320 g/ha, scored visually after 3 weeks vs untreated controls (100% = plants have died)
In short: (§2)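 Seeds sown in sandy loam in pots and covered with soil; compounds formulated as WP or EC were sprayed onto the soil surface as aqueous suspension/emulsion at 600 to 800 l/ha water with 0.2% wetting agent. Greenhouse growth; visual damage scored after 3 weeks versus untreated controls (100% = plants died, 0% = like control).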

Matricaria inodora = experiment: Pre-emergence herbicidal action, MATIN; details: dosage 320 g/ha, scored visually after 3 weeks vs untreated controls (100% = plants have died)
In short: as §2

Avena fatua = experiment: Post-emergence herbicidal action, AVEFA; set-up: key: % herbicidal action vs untreated; 100 = plants died, 0 = like control
In short: as §1

Polygonum convolvulus [1] = experiment: Pre-emergence herbicidal action, POLCO; details: dosage 320 g/ha, scored visually after 3 weeks vs untreated controls (100% = plants have died)
In short: as §2

Setaria viridis = experiment: Post-emergence herbicidal action, SETVI; set-up: key: % herbicidal action vs untreated; 100 = plants died, 0 = like control
In short: as §1

Polygonum convolvulus [2] = experiment: Post-emergence herbicidal action, POLCO
In short: as §1

SMILES | herbicidal action ALOMY (Alopecurus myosuroides; post-emergence, dosage 80 g/ha) | herbicidal activity VIOTR (Viola tricolor) | herbicidal activity MATIN (Matricaria inodora) | herbicidal action AVEFA (Avena fatua; post-emergence, dosage 80 g/ha) | herbicidal activity POLCO (Polygonum convolvulus [1]) | herbicidal action SETVI (Setaria viridis; post-emergence, dosage 80 g/ha) | herbicidal action POLCO (Polygonum convolvulus [2]; post-emergence, dosage 80 g/ha) | herbicidal action ALOMY (Alopecurus myosuroides; Dosage 80 g/ha) | herbicidal action AVEFA (Avena fatua; Dosage 80 g/ha) | herbicidal action SETVI (Setaria viridis; Dosage 80 g/ha) | herbicidal action POLCO (Polygonum convolvulus [2]; Dosage 80 g/ha)
CCn1nnnc1NC(=O)c1ccc(C(F)(F)F)c(CSC)c1SC [Example 2-161] | 80% | 100% | 100% | 90% | 90% | 100% | 100% | – | – | – | –
CCn1nnnc1NC(=O)c1ccc(C(F)(F)F)c(CS(C)(=O)=O)c1SC [Example 2-163] | – | 100% | 100% | – | 100% | – | – | 90 | 100 | 90 | 90
CCn1nnnc1NC(=O)c1ccc(C(F)(F)F)c(CSC)c1Br [Example 2-380] | 80% | 100% | 100% | 100% | 90% | 100% | 90% | – | – | – | –
CCSCc1c(C(F)(F)F)ccc(C(=O)Nc2nnnn2CC)c1Br [Example 2-383] | 80% | 100% | 100% | 100% | 90% | 100% | 90% | – | – | – | –
CCCn1nnnc1NC(=O)c1ccc(C(F)(F)F)c(CSCC)c1Cl [Example 3-299] | – | 100% | 100% | – | 90% | – | – | 80 | 80 | 90 | 80
CCCn1nnnc1NC(=O)c1ccc(C(F)F)c(CSC)c1Cl [Example 3-320] | – | 100% | 100% | – | 90% | – | – | 80 | 90 | 100 | 90
CCCn1nnnc1NC(=O)c1ccc(C(F)(F)F)c(CSC)c1Br [Example 3-380] | – | 100% | 100% | – | 80% | – | – | 80 | 100 | 90 | 90
CCCn1nnnc1NC(=O)c1ccc(C(F)(F)F)c(C[S+](C)[O-])c1Br (stereo not drawn) [Example 3-381] | 80% | 100% | 100% | 100% | 80% | 90% | 80% | – | – | – | –
CCCn1nnnc1NC(=O)c1ccc(C(F)(F)F)c(CSCC)c1Br [Example 3-383] | – | 100% | 100% | – | 90% | – | – | 80 | 90 | 90 | 90

Reference: patent US12492173B2, “Herbicidal substituted N-tetrazolyl aryl carboxamides” (Bayer Aktiengesellschaft, priority 2019, dated 2025)
